Key:
TU-5 tumor cells = assay: Macrophage cytotoxic activity towards TU-5 tumor cells (peritoneal macrophages of i.p. treated mice, MTT); assay type: cell-based; conditions: Effector:Target 5:1; 10 mg/kg/i.p.; 7 days before cell collection; 48 hours incubation
Procedure: The experimental procedure to evaluate this activity is as follows: groups of 4 mice are treated i.p. with the tested compounds and then, seven days later, peritoneal cells are collected and plated for 2 hours at 37° C. After this period the walls are washed to eliminate the non adherent cells, tumor target cells are then added and the incubation prolonged for 48 hours. At the end of this period the target cells viability is evaluated by the MTT colorimetric method (Abstracts of VIII European Immunology Meeting, Zagreb, 1987, pag 94 n°2105) based on the optical density (OD) evaluation at 570 nm.
Percent specific cytotoxicity (%C) is calculated as % inhibition of TU-5 tumor cells (Immunology, 1984, 166, 251) growth using the following formula: [formula]
The following Table I summarizes the immunostimulating activity data of some representative compounds of the invention, obtained according to hereabove experimental procedure, towards TU-5 tumor cells.

Pseudomonas aeruginosa = Pseudomonas aeruginosa infection in Cyclophosphamide immunosuppressed mice; assay type: in vivo; conditions: for % survival: 10 mg/kg/i.p., 8 LD50 intravenously, 10 days after bacterial challenge; for effectiveness against Pseudomonas aeruginosa infection: Cyclophosphamide immunosuppressed mice, in words
Procedure: The experimental procedure to evaluate this activity is as follows: mice are immunosuppressed 4 days before the bacterial challenge by a single dose of 200 mg/kg of Cyclophosphamide given intraperitoneally. Tested compounds are administered i.p. on days +1 and +3 relative to Cyclophosphamide administration. Clinically isolated Pseudomonas aeruginosa is administered intravenously in amount of 8 LD50. Host resistance to infection is estimated by the number of mice surviving 10 days after the bacterial challenge.

| Structure (SMILES) | Macrophage cytotoxic activity (% inhibition of TU-5 growth) (TU-5 tumor cells) | % survival (Pseudomonas aeruginosa) | effectiveness against Pseudomonas aeruginosa infection (Pseudomonas aeruginosa) |
| --- | --- | --- | --- |
| N#CC(C(=O)Nc1ccccc1)C(=O)c1nn(-c2ccccc2)c2c1Cc1ccccc1-2 (stereo not drawn) [FCE 25276, 2-cyano-3-(1,4-dihydro-1-phenyl-indeno[1,2-c]pyrazol-3-yl) -3-oxo-N-phenyl-propanamide] | 93% | 90% | strongly effective |
| N#CC(C(=O)Nc1ccc(F)cc1)C(=O)c1nn(-c2ccccc2)c2c1Cc1ccccc1-2 (stereo not drawn) [FCE 25648, 2-cyano-N-(4-fluoro-phenyl)-3-(1,4-dihydro-1-phenyl-indeno[1,2-c]pyrazol-3-yl)-3-oxo-propanamide] | 77% | 90% | strongly effective |
| N#CC(C(=O)Nc1cccc(Cl)c1)C(=O)c1nn(-c2ccccc2)c2c1Cc1ccccc1-2 (stereo not drawn) [FCE 25651, N-(3-chloro-phenyl)-2-cyano-3-(1,4-dihydro-1-phenyl-indeno[1,2-c]pyrazol-3-yl)-3-oxo-propanamide] | 79% | 90% | strongly effective |
| N#CC(C(=O)Nc1ccccc1)C(=O)c1nn(-c2ccccc2)c2c1sc1ccccc12 (stereo not drawn) [FCE 26047, 2-cyano-3-oxo-3-(1-phenyl-1H-benzothieno[3,2-c]pyrazol-3-yl)-N-phenyl-propanamide] | 82% | 70% | strongly effective |

Reference: US5424308A, “Condensed pyrazole 3-oxo-propanenitrile derivatives” (Farmitalia Carlo Erba S.r.l., priority 1988, dated 1995)
